Where “and” joins values, the source holds several entries; their conditions need not be identical. Equal entries are not always repeated. Inconclusive results and toxic doses are left out.
System: L1210 leukemia ip in BDF1 mice, survival T/C
Experiment: NCI In Vivo Anticancer Drug Screen. Data for tumor model L1210 Leukemia (intraperitoneal) in B6D2F1 (BDF1) mice
Conditions: endpoint: mean survival time, higher = longer survival
Outline: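 Mice bearing the transplanted tumor received compound or vehicle. Survival of the treated group was divided by that of the vehicle-treated control group to give the ratio.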

[1] = dose: 100.0 mg/kg/injection, schedule: Q04DX003 (ip), vehicle: saline with Tween-80
[2] = dose: 200.0 mg/kg/injection, schedule: Q04DX003 (ip), vehicle: saline with Tween-80
[3] = dose: 400.0 mg/kg/injection, schedule: Q04DX003 (ip), vehicle: saline with Tween-80
[4] = dose: 100.0 mg/kg/injection, schedule: Q04DX002 (ip), vehicle: Klucel (hydroxypropylcellulose) (HPC)
[5] = dose: 200.0 mg/kg/injection, schedule: Q04DX002 (ip), vehicle: Klucel (hydroxypropylcellulose) (HPC)
[6] = dose: 100.0 mg/kg/injection, schedule: Q01DX001 (ip), vehicle: saline
[7] = dose: 200.0 mg/kg/injection, schedule: Q01DX001 (ip), vehicle: saline
[8] = dose: 400.0 mg/kg/injection, schedule: Q01DX001 (ip), vehicle: saline
[9] = dose: 100.0 mg/kg/injection, schedule: Q01DX009 (ip), vehicle: Klucel (hydroxypropylcellulose) (HPC)
[10] = dose: 200.0 mg/kg/injection, schedule: Q01DX009 (ip), vehicle: Klucel (hydroxypropylcellulose) (HPC)
[11] = dose: 400.0 mg/kg/injection, schedule: Q01DX009 (ip), vehicle: Klucel (hydroxypropylcellulose) (HPC)

In the case of CCCCCCCCCCCCCCn1cnc2ncnc(Cl)c21, the T/C (dose: 12.5 mg/kg/injection, schedule: Q01DX005 (ip), vehicle: other) is reported as 104 % of control, the T/C (dose: 25.0 mg/kg/injection, schedule: Q01DX005 (ip), vehicle: other) is reported as 104 % of control and the T/C (dose: 50.0 mg/kg/injection, schedule: Q01DX005 (ip), vehicle: other) is reported as 103 % of control. For the same compound, the T/C (dose: 100.0 mg/kg/injection, schedule: Q01DX005 (ip), vehicle: other) was 101 % of control and the T/C (dose: 200.0 mg/kg/injection, schedule: Q01DX005 (ip), vehicle: other) was 96 % of control.

Cn1cc(Cc2ccccc2)c(=O)n(C)c1=O was tested, and the T/C [1] was 100 % of control, the T/C [2] was 100 % of control and the T/C [3] was 106 % of control.

With CCCc1nc2ccccc2c(=O)n1/N=C/c1ccc(OC)cc1 the T/C [4] was 96 % of control, the T/C [5] was 99 % of control and the T/C (dose: 400.0 mg/kg/injection, schedule: Q04DX002 (ip), vehicle: Klucel (hydroxypropylcellulose) (HPC)) was 101 % of control.

In the case of O=[N+]([O-])C1CC=CCC1C(Cl)(Cl)Cl (stereo not drawn), the T/C (dose: 5.0 mg/kg/injection, schedule: Q04DX003 (ip), vehicle: saline sonified) is reported as 95 % of control, the T/C (dose: 10.0 mg/kg/injection, schedule: Q04DX003 (ip), vehicle: saline sonified) is reported as 110 % of control and the T/C (dose: 20.0 mg/kg/injection, schedule: Q04DX003 (ip), vehicle: saline sonified) is reported as 98 % of control.

With CCCNC(=O)Nc1cccc(Cl)c1 the T/C (dose: 100.0 mg/kg/injection, schedule: Q01DX001 (ip), vehicle: carboxymethylcellulose (CMC)) was 102 % of control, the T/C (dose: 200.0 mg/kg/injection, schedule: Q01DX001 (ip), vehicle: carboxymethylcellulose (CMC)) was 109 % of control and the T/C (dose: 400.0 mg/kg/injection, schedule: Q01DX001 (ip), vehicle: carboxymethylcellulose (CMC)) was 105 % of control.

In the case of CC1(C)OC2OC(CO)C(O)C2O1 (stereo not drawn), the T/C [6] is reported as 101 % of control, the T/C [7] is reported as 97 % of control and the T/C [8] is reported as 98 % of control.

With CN(Cc1cnc2nc(N)nc(N)c2n1)c1ccc(C(=O)NC(CCC(=O)O)C(=O)O)c(Cl)c1 (stereo not drawn) the T/C (dose: 25.0 mg/kg/injection, schedule: Q01DX009 (ip), vehicle: sodium bicarbonate) was 154 % of control.

In the case of CS(=O)(=O)c1nc2ccccc2[nH]1, the T/C [4] is reported as 105 % of control and the T/C [5] is reported as 97 % of control.

In the case of COc1cc(Nc2nc(N)ncc2N)cc(OC)c1OC, the T/C [1] is reported as 95 % of control, the T/C [2] is reported as 98 % of control and the T/C [3] is reported as 92 % of control.

CCC1(CC2CCCN(C)C2)c2ccccc2Sc2ccccc21 (stereo not drawn) was tested, and the T/C (dose: 8.0 mg/kg/injection, schedule: Q01DX015 (ip), vehicle: carboxymethylcellulose (CMC)) was 105 % of control, the T/C (dose: 16.0 mg/kg/injection, schedule: Q01DX015 (ip), vehicle: carboxymethylcellulose (CMC)) was 94 % of control and the T/C (dose: 32.0 mg/kg/injection, schedule: Q01DX015 (ip), vehicle: carboxymethylcellulose (CMC)) was 91 % of control. For the same compound, the T/C (dose: 64.0 mg/kg/injection, schedule: Q01DX015 (ip), vehicle: carboxymethylcellulose (CMC)) was 103 % of control and 110 % of control.

CCCCCCCCCC(=O)N/N=C/c1ccccc1O was tested, and the T/C [9] was 93 % of control, the T/C [10] was 101 % of control and the T/C [11] was 105 % of control.

With CC1=CC(C(=O)O)P(C)(=O)C1 (stereo not drawn) the T/C (dose: 100.0 mg/kg/injection, schedule: Q04DX002 (ip), vehicle: saline with Tween-80) was 92 % of control and the T/C (dose: 400.0 mg/kg/injection, schedule: Q04DX002 (ip), vehicle: saline with Tween-80) was 88 % of control.

O=CNC(c1ccccc1)(c1ccccc1)c1ccccc1 was tested, and the T/C [9] was 99 % of control, the T/C (dose: 100.0 mg/kg/injection, schedule: Q04DX003 (ip), vehicle: Klucel (hydroxypropylcellulose) (HPC)) was 102 % of control and the T/C [10] was 91 % of control. For the same compound, the T/C (dose: 200.0 mg/kg/injection, schedule: Q04DX003 (ip), vehicle: Klucel (hydroxypropylcellulose) (HPC)) was 94 % of control, the T/C [11] was 91 % of control and the T/C (dose: 400.0 mg/kg/injection, schedule: Q04DX003 (ip), vehicle: Klucel (hydroxypropylcellulose) (HPC)) was 102 % of control.

In the case of COc1ccc([N+](=O)[O-])cc1NC(=O)c1ccc(Cl)cc1, the T/C (dose: 50.0 mg/kg/injection, schedule: Q01DX009 (ip), vehicle: Klucel (hydroxypropylcellulose) (HPC)) is reported as 96 % of control, the T/C [9] is reported as 94 % of control and the T/C [10] is reported as 95 % of control. For the same compound, the T/C [11] was 94 % of control.

With COc1ccc2c(c1OC)-c1c3c(cc4c1C(C2)N(C)CC4)OCO3 (stereo not drawn) the T/C [6] was 98 % of control, the T/C [7] was 101 % of control and the T/C [8] was 96 % of control.

Source: PubChem BioAssay AID248 (DTP/NCI, 2004)
